Several values for one entry are separate records, joined by “and”; a condition that tells them apart may be missing. Equal values may be shown once.
System: 883617-216-R-J1-PDC complex spheroid viability
Assay: Anticancer human tumor 883617-216-R-J1-PDC patient-derived bladder carcinoma cell line growth inhibition
Details: for viability, T/C: stronger effect = lower value
How it was run: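 Multicellular complex spheroids of tumor cells with human endothelial cells (HUVEC) and mesenchymal stem cells; the LSD1 inhibitor iadademstat was combined with standard-of-care or investigational agents. Top concentration at or near clinical Cmax, half-log dilutions; final DMSO ≤0.25%.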

[1] = curve of first compound, second compound 0.1 µM
[2] = curve of first compound, second compound 0.316 µM
[3] = curve of first compound, second compound 1 µM
[4] = curve of first compound, second compound 3.16 µM
[5] = curve of first compound, second compound 10 µM
[6] = second compound 0.1 µM, first compound 0.0316 µM
[7] = second compound 0.1 µM, first compound 0.1 µM
[8] = second compound 0.1 µM, first compound 0.316 µM
[9] = second compound 0.1 µM, first compound 1 µM
[10] = second compound 0.316 µM, first compound 0.0316 µM
[11] = second compound 0.316 µM, first compound 0.1 µM
[12] = second compound 0.316 µM, first compound 0.316 µM
[13] = second compound 0.316 µM, first compound 1 µM
[14] = second compound 1 µM, first compound 0.0316 µM
[15] = second compound 1 µM, first compound 0.1 µM
[16] = second compound 1 µM, first compound 0.316 µM
[17] = second compound 1 µM, first compound 1 µM
[18] = second compound 3.16 µM, first compound 0.0316 µM
[19] = second compound 3.16 µM, first compound 0.1 µM
[20] = second compound 3.16 µM, first compound 0.316 µM
[21] = second compound 3.16 µM, first compound 1 µM
[22] = second compound 10 µM, first compound 0.0316 µM
[23] = second compound 10 µM, first compound 0.1 µM
[24] = second compound 10 µM, first compound 0.316 µM
[25] = second compound 10 µM, first compound 1 µM
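Further: exposure lasted seven days after three days of spheroid growth.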
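Wherever viability, T/C is given: 100% = DMSO vehicle control luminescence.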

O=C(C=Cn1cnc(-c2cc(C(F)(F)F)cc(C(F)(F)F)c2)n1)NNc1cnccn1 + NC1CC1c1ccc(-c2cccc(O)c2)cc1
IC50 [1]: 6.13 nM
IC50 [2]: 5.37 nM
IC50 [3]: 5.18 nM
IC50 [4]: 5.05 nM
IC50 [5]: 4.37 nM
viability, T/C (second compound 0.1 µM, first compound 0.00316 µM): 76.8%
viability, T/C (second compound 0.1 µM, first compound 0.01 µM): 28.8%
viability, T/C [6]: 23.8%
viability, T/C [7]: 17.6%
viability, T/C [8]: 15.6%
viability, T/C [9]: 15.6%
viability, T/C (second compound 0.316 µM, first compound 0.00316 µM): 65.9%
viability, T/C (second compound 0.316 µM, first compound 0.01 µM): 31.3%
viability, T/C [10]: 19.1%
viability, T/C [11]: 14.8%
viability, T/C [12]: 16%
viability, T/C [13]: 14.3%
viability, T/C (second compound 1 µM, first compound 0.00316 µM): 66.5%
viability, T/C (second compound 1 µM, first compound 0.01 µM): 28.1%
viability, T/C [14]: 18.4%
viability, T/C [15]: 15.9%
viability, T/C [16]: 16.3%
viability, T/C [17]: 15.5%
viability, T/C (second compound 3.16 µM, first compound 0.00316 µM): 65.1%
viability, T/C (second compound 3.16 µM, first compound 0.01 µM): 28.1%
viability, T/C [18]: 17.5%
viability, T/C [19]: 16%
viability, T/C [20]: 14.6%
viability, T/C [21]: 14.3%
viability, T/C (second compound 10 µM, first compound 0.00316 µM): 60%
viability, T/C (second compound 10 µM, first compound 0.01 µM): 24.8%
viability, T/C [22]: 18.2%
viability, T/C [23]: 15.1%
viability, T/C [24]: 15.4%
viability, T/C [25]: 15.8%

O=C(c1cc(Cc2n[nH]c(=O)c3ccccc23)ccc1F)N1CCN(C(=O)C2CC2)CC1 + NC1CC1c1ccc(-c2cccc(O)c2)cc1
IC50 [1]: 855 nM
IC50 [2]: 784 nM
IC50 [3]: 1070 nM
IC50 [4]: 526 nM
IC50 [5]: 160 nM
viability, T/C [6]: 94.1%
viability, T/C [7]: 86.6%
viability, T/C [8]: 72.5%
viability, T/C [9]: 45.8%
viability, T/C (second compound 0.1 µM, first compound 3.16 µM): 37.5%
viability, T/C (second compound 0.1 µM, first compound 10 µM): 36.4%
viability, T/C [10]: 96%
viability, T/C [11]: 87.7%
viability, T/C [12]: 65.5%
viability, T/C [13]: 46.5%
viability, T/C (second compound 0.316 µM, first compound 3.16 µM): 34.9%
viability, T/C (second compound 0.316 µM, first compound 10 µM): 31.9%
viability, T/C [14]: 91.3%
viability, T/C [15]: 71.8%
viability, T/C [16]: 60.8%
viability, T/C [17]: 59.5%
viability, T/C (second compound 1 µM, first compound 3.16 µM): 33.5%
viability, T/C (second compound 1 µM, first compound 10 µM): 26.9%
viability, T/C [18]: 93.3%
viability, T/C [19]: 84.1%
viability, T/C [20]: 53.7%
viability, T/C [21]: 42.1%
viability, T/C (second compound 3.16 µM, first compound 3.16 µM): 35.9%
viability, T/C (second compound 3.16 µM, first compound 10 µM): 25.5%
viability, T/C [22]: 58%
viability, T/C [23]: 53.4%
viability, T/C [24]: 47.1%
viability, T/C [25]: 38%
viability, T/C (second compound 10 µM, first compound 3.16 µM): 31.1%
viability, T/C (second compound 10 µM, first compound 10 µM): 26.5%

COc1cc(Nc2ncc3c(n2)-c2ccc(Cl)cc2C(c2c(F)cccc2OC)=NC3)ccc1C(=O)O
viability, T/C (compound 0.00316 µM): 99.2% and 68.6%
viability, T/C (compound 0.01 µM): 73.5% and 63.5%
viability, T/C (compound 0.0316 µM): 53.3% and 44%
viability, T/C (compound 0.1 µM): 49% and 36.2%
viability, T/C (compound 0.316 µM): 45.1% and 34.5%
viability, T/C (compound 1 µM): 48.5% and 34.6%
IC50 (curve of compound): 66.9 nM and 22.3 nM

Reference: PubChem BioAssay AID1918945 (Molecular Pharmacology Branch, DTP, NCI, 2023)
